Assay results as given in article PMC10041525, “New Dual Inhibitors of Bacterial Topoisomerases with Broad-Spectrum Antibacterial Activity and In Vivo Efficacy against Vancomycin-Intermediate Staphylococcus aureus” (Journal of Medicinal Chemistry, 2023).
In brackets after ≈: the same amount, converted by molar mass. Read-outs that look alike come from different tables or passages of the source.

Assays:
[1] = test system: Chinese hamster ovary K1 cells; test: in vitro micronucleus test
[2] = mitochondrial toxicity glu/gal assay; assay type: cell-based; details: human, read-out: cell viability (ATP), % of control
Experimental: (§1) HepG2 cells were seeded in two 96-well plates at a density of 50,000 cells per well in 100 μL of growth medium. For the first plate, the growth medium contained glucose and for the second plate, it contained galactose. Cells were incubated overnight in a 5% CO2 atmosphere at 37 °C and allowed to attach onto the wells. […] The medium contained positive control (Rotenone). […] Luminescence was measured with Tecan Infinite 200 pro luminometer, and the values from each well treated with compound were compared to the values given by the negative control (medium only). The inhibition of mitochondrial function was determined by comparing ATP levels in galactose and glucose exposed cells. […]

HepG2 cells = test: mitochondrial toxicity glu/gal assay; assay type: cell-based; details: human
Experimental: as §1

hemolysis assay = assay type: cell-based; details: human, red blood cells, pH 7.4; read-out: Haemolysis
Experimental: RBCs were washed three times in Tyrode buffer (130 mM NaCl, 4 mM KCl, 2.8 mM Na acetate, 1 mM MgCl2, 10 mM HEPES, 10 mM glucose, 1 mM CaCl2, adjusted to pH 7.4) and resuspended in the same buffer. Final concentrations in the hemolysis assay were 100 μM compound, 1% DMSO, and 50% RBC, assayed in a 200 μL volume in a microtiter plate. The mixture was incubated at 37 °C for 45 min with shaking (250 rpm). After incubation, RBCs were removed by centrifugation, clear plasma was transferred to a fresh plate, and the amount of hemoglobin was measured using a spectrophotometer at 540 nm. The complete lysis control contained 2% Triton X-100 (in Tyrode buffer) instead of compound; the negative control contained Tyrode buffer but no compound. Percent hemolysis was calculated as: [Abs compound] – [Abs negative control]/[Abs complete lysis control] – [Abs negative control] × 100. Values greater than 1% hemolysis at 100 μM were regarded as a red flag.

[3] = thermodynamic solubility in phosphate buffer, LC-MS/MS; details: 100 mM phosphate buffer pH 7.4, 24 h, 37 °C
Experimental: 0.5 mL of 67 mM phosphate
(§2) in a rotational shaker (400 rpm) at 23 °C. After the incubation an aliquot of 200 µL was
(§3) 1 µL of the supernatant was transferred to 96-well plate in triplicate wells, diluted 100×
(§4) with acetonitrile/H2O (60/40) containing 50 nM warfarin as internal standard and analyzed
(§5) performed comparing to a separately constructed standard series (10 nM to 1000 nM).
(§6) shaker (900 rpm) at 37 °C. After the incubation an aliquot of 200 µL was transferred to a
(§7) conical glass insert and centrifuged for 30 min at 10 000 × g at 37 °C. The supernatant was
(§8) transferred to a new HPLC vial appropriately diluted (100×, 1000×, 5000×) with
(§9) acetonitrile/H2O (50/50) containing 50 nM warfarin as internal standard and analyzed by
(§10) performed comparing to a separately constructed standard curve between 3 nM to 20000

P. aeruginosa DNA gyrase = biological target: T1, P. aeruginosa DNA gyrase (Pseudomonas aeruginosa, UniProt Q9I7C2); test: supercoiling HTS assay; assay type: biochemical
T1 construct: purchased Inspiralis
Experimental: The assay to determine IC50 values was performed using assay kits from Inspiralis in accordance with previously described procedures.[43] Seven concentrations of the inhibitors were used to determine IC50 values which were then calculated with GraphPad Prism 6.0 software. Three independent measurements were performed to determine IC50 values, and mean values are reported as the final result.

[4] = test system: E. coli ATCC 25922, CH3130 ΔtolC, CGSC 5163 D22; test: MIC, wild-type vs efflux-defective and lps mutant; assay type: cell-based; details: Escherichia coli
[5] = test system: A. baumannii BM4652 and NMI clinical isolates; test: MIC, wild-type, efflux-defective and MDR clinical isolates; assay type: cell-based; details: Acinetobacter baumannii
hERG channel = biological target: T2, hERG channel (Homo sapiens, UniProt Q12809); test: whole-cell patch-clamp on HEK293 cells; assay type: cell-based; details: 50 µM 7a, mean ± SD
T2 construct: expressed in transfected cells; host or cells: HEK293 cells stably expressing the channel
Source text: hERG inhibition was additionally determined in whole-cell patch-clamp experiments on HEK293 cells stably expressing the channel, as previously described.[55]

physchem = details: pH 7.4
Experimental: 0.5 mL of 67 mM phosphate
as §2, §3, §4, §5, §6, §7, §8, §9, §10

[6] = biological target: T3, hERG potassium ion channel (Homo sapiens, UniProt Q12809); test: patch-clamp on transfected CHO cells; assay type: cell-based
T3 construct: expressed in transfected cells; host or cells: CHO cells (stably transfected)
Experimental: hERG and NaV1.5 inhibition was measured with the patch-clamp method on stably transfected CHO cells according to previously described procedures.[34] […] The normalized hERG/NaV1.5 current is reported as mean ± standard error of the mean (SEM, N = 5–6).

T3 sequence (Q12809 whole entry): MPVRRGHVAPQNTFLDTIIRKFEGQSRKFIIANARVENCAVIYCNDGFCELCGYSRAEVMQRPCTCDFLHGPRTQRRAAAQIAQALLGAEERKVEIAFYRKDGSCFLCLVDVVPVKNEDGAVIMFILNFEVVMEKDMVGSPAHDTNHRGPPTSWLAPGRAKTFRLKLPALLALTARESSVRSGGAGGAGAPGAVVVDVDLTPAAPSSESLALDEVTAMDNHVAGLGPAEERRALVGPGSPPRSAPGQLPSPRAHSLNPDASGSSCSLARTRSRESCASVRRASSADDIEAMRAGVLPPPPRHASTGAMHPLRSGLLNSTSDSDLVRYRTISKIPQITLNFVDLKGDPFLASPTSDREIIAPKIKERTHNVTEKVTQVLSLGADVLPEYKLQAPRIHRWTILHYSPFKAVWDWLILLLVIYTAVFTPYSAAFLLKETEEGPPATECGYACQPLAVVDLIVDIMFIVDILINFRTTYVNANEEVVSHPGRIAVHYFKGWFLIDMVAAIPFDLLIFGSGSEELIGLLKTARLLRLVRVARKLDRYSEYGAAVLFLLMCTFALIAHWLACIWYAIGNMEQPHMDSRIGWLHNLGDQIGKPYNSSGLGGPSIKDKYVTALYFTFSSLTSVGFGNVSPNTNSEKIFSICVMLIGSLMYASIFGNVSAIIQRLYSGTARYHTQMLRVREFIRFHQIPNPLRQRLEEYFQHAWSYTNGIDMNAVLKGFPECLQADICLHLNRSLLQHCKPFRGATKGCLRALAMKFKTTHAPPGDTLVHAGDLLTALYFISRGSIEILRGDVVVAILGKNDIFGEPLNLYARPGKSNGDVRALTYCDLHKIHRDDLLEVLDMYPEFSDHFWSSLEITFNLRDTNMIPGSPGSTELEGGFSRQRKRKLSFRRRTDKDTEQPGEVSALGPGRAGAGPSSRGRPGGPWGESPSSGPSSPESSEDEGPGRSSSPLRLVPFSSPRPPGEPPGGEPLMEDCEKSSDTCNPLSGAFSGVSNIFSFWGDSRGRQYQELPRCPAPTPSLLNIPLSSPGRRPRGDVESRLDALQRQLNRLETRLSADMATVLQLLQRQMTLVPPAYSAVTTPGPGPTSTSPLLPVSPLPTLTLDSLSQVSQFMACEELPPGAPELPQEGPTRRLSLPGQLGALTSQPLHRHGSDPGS
T2 sequence (Q12809 whole entry): as above
T1 sequence (Q9I7C2 whole entry): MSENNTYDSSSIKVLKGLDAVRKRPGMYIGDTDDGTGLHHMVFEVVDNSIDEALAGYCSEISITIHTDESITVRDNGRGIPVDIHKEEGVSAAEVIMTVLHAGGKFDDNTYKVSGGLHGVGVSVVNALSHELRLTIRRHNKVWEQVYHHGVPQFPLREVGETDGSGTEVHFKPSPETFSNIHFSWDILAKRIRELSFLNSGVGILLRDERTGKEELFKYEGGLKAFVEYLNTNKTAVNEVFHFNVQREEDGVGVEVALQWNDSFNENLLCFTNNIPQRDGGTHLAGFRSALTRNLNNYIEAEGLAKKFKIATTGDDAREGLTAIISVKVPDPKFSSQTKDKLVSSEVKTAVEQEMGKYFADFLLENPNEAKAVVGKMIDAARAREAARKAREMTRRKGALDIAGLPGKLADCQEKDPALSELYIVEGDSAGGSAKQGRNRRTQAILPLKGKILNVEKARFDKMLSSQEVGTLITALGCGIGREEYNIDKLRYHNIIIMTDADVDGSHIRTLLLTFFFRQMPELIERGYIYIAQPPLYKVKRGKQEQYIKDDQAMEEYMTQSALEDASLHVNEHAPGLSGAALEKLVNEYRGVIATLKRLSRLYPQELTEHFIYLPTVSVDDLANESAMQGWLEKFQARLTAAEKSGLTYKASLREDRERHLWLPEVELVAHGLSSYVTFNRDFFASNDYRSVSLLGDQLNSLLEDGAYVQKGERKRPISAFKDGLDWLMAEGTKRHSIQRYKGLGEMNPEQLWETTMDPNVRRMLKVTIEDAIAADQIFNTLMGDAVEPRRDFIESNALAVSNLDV
T1 sequence (P48372 whole entry, further chain): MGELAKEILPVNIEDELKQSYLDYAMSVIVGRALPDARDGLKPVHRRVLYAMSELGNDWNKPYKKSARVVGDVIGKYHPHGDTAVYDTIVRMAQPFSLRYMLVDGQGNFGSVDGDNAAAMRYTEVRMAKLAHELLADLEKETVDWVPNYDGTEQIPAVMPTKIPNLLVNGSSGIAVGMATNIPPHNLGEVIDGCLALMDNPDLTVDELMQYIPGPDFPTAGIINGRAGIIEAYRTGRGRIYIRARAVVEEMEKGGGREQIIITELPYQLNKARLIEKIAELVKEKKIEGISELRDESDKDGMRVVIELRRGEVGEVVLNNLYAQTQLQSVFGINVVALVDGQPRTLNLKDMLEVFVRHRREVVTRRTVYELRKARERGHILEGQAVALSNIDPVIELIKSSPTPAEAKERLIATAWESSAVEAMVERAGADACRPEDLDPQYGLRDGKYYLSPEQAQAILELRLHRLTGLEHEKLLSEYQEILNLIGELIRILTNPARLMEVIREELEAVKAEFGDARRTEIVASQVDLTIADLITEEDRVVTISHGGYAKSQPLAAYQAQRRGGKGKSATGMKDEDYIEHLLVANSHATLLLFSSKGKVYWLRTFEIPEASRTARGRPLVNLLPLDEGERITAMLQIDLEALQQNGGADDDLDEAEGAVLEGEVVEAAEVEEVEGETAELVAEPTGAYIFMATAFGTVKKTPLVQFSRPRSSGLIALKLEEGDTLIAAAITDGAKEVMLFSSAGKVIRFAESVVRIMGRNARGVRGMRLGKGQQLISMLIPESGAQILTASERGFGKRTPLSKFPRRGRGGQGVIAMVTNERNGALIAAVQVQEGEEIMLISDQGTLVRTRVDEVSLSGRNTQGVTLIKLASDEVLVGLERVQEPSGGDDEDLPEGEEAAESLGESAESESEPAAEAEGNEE

For `Cc1[nH]c(C(=O)Nc2nc3c(N4CCOCC4)cc(C(=O)O)cc3s2)c(Cl)c1Cl` [7a, 2-(3,4-Dichloro-5-methyl-1H-pyrrole-2-carboxamido)-4-morpholinobenzo[d]thiazole-6-carboxylic Acid], the “% Micronuclei” value ([1]; with S9, 25 µM) was 2.7%, the No. binucleate cells ([1]; with S9, 25 µM) was 1707 and the “% Cytostasis” value ([1]; with S9, 50 µM) was 1.4%. For the same compound, the “% Micronuclei” value ([1]; with S9, 50 µM) was 4.5%, the No. binucleate cells ([1]; with S9, 50 µM) was 1296 and the “% Cytostasis” value ([1]; with S9, 100 µM) was “tox”. For the same compound, the “genotoxic concentration (no genotoxicity up to)” value ([1]; with S9 activation) was over 50 µM, the “% Micronuclei” value ([1]; without S9, 6.25 µM) was 2.8% and the No. binucleate cells ([1]; without S9, 6.25 µM) was 3160. For the same compound, the “% Micronuclei” value ([1]; without S9, 25 µM) was 2.5%, the No. binucleate cells ([1]; without S9, 25 µM) was 2644 and the “% Cytostasis” value ([1]; without S9, 50 µM) was 0.1%. For the same compound, the “% Micronuclei” value ([1]; without S9, 50 µM) was 4.4%, the No. binucleate cells ([1]; without S9, 50 µM) was 1687 and the “% Cytostasis” value ([1]; without S9, 100 µM) was 40.8%. For the same compound, the “% Micronuclei” value ([1]; without S9, 100 µM) was 7%, the No. binucleate cells ([1]; without S9, 100 µM) was 642 and the “% Micronuclei” value ([1]; without S9, […]) was 2.7%. The “genotoxic concentration (no genotoxicity up to)” value ([1]; without metabolic activation) was over 100 µM, the viability at 10 µM ([2]; galactose) was 98% and the viability at 50 µM ([2]; galactose) was 98%. It also gave a viability at 100 µM ([2]; galactose) of 97%, a viability at 300 µM ([2]; galactose) of 98% and a viability at 600 µM ([2]; galactose) of 94%. The viability at 1000 µM ([2]; galactose) was 83%, the viability at 10 µM ([2]; glucose) was 109% and the viability at 50 µM ([2]; glucose) was 107%. It also gave a viability at 100 µM ([2]; glucose) of 105%, a viability at 300 µM ([2]; glucose) of 99% and a viability at 600 µM ([2]; glucose) of 95%. For the same compound, the viability at 1000 µM ([2]; glucose) was 79%, the “mitotoxic concentration (not mitotoxic up to)” value (HepG2 cells) was over 1000 µM and the hemolysis at 45 min, 100 μM (hemolysis assay) was 0.28 ± 0.01%. The “thermodynamic solubility, second method” value [3] was 167.9 µM (≈ 76.4 µg/mL), the IC50 (P. aeruginosa DNA gyrase) was under 10 nM and the MIC ([4]; ATCC25922, E. coli ATCC 25922) was 8 µg/mL (≈ 17.6 µM). It also gave an MIC ([4]; ATCC25922, E. coli CGSC 5163 D22, lps mutant, hypersensitive) of 2 µg/mL (≈ 4.39 µM), an MIC ([4]; ATCC25922, E. coli CH3130 ΔtolC, efflux-defective) of under 0.125 µg/mL and an MIC ([5]; A. baumannii BM4652, efflux-defective) of under 0.125 µg/mL. For the same compound, the MIC ([5]; A. baumannii NMI 2692/14, clinical MDR) was 1 µg/mL (≈ 2.2 µM), the MIC ([5]; A. baumannii NMI 2699/14, clinical MDR) was 1 µg/mL (≈ 2.2 µM) and the MIC ([5]; A. baumannii NMI 2704/14, clinical MDR) was 1 µg/mL (≈ 2.2 µM). The “hERG inhibition (current reduction)” value (hERG channel) was 0 ± 12%, the solubility thermodynamic at 24 h (physchem) was 168 µM (≈ 76.5 µg/mL) and the “inhibition of hERG” value ([6]; 50 µM) was “no significant inhibition”. For the same compound, the “hERG current fraction (normalized to neg. control)” value ([6]; 50 µM 7a, mean ± SEM) was 1.01 ± 0.02.
